The target in assay [1] is purified human Factor XIa (Homo sapiens (Human), UniProt P03951). Kind of assay: Factor XIa enzyme inhibition assay (chromogenic substrate S-2366). The note with it: read-out: Factor XIa Ki; measured at 25° C.
The target of assay [2] is purified human plasma kallikrein (Homo sapiens (Human), UniProt P03952). The assay is described as follows: Plasma kallikrein enzyme inhibition assay (chromogenic substrate S-2302). Type of assay: biochemical.
[3] abbreviates: measured at 25° C. (no asterisk).

The text below walks through data of patent US9738655B2, “Tetrahydroisoquinolines containing substituted azoles as factor XIa inhibitors” (BRISTOL-MYERS SQUIBB COMPANY, priority 2013, dated 2017).

Counter-ions that a name gives are not always drawn.

In general, Ki refers to a measure of affinity in units of concentration, obtained from inhibition or displacement.

Chain of purified human Factor XIa (P03951 388-625): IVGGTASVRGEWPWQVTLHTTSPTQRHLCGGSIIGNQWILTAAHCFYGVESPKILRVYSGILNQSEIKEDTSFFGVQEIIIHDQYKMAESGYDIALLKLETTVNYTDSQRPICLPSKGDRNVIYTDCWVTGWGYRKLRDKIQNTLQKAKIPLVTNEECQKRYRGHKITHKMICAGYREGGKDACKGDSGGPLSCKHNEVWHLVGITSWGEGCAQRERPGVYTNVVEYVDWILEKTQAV
Chain of purified human Factor XIa (P03951 19-387 partner): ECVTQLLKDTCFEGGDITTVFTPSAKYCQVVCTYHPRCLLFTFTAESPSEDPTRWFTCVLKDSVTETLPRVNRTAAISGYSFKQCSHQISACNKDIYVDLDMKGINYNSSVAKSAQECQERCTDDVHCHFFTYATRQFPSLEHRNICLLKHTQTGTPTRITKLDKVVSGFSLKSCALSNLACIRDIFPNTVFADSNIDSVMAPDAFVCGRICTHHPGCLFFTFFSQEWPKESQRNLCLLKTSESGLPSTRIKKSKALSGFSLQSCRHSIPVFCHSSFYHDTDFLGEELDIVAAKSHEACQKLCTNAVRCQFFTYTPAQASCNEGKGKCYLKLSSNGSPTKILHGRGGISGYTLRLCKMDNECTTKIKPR
Chain of purified human plasma kallikrein (P03952 391-638): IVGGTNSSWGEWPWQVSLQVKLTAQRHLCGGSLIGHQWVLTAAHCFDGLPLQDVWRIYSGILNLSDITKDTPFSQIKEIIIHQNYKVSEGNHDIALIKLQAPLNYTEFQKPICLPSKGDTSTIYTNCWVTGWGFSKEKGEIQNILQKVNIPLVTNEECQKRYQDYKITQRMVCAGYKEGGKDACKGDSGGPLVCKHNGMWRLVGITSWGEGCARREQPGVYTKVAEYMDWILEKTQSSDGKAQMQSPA
Chain of purified human plasma kallikrein (P03952 20-390 partner): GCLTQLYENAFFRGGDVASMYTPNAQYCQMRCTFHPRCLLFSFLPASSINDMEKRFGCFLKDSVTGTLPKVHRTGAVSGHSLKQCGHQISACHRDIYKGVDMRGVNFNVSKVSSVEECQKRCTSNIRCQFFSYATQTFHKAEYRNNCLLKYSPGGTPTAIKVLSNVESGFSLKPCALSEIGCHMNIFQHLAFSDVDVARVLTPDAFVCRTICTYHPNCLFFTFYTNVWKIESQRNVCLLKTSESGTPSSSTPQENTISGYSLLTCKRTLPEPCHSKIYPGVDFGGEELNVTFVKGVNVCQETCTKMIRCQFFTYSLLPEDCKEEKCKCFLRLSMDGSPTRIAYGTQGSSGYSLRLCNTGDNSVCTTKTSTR

In the case of `CN(C)C1CCN(c2cccc3c2CCN(C(=O)c2cn(-c4cccc(Cl)c4F)cn2)C3C(=O)Nc2ccc(C(=O)O)cc2)CC1` (stereo not shown) [Example 53, 4-(2-(1-(3-chloro-2-fluorophenyl)-1H-imidazole-4-carbonyl)-5-(4-(dimethylamino)piperidin-1-yl)-1,2,3,4-tetrahydroisoquinoline-1-carboxamido)benzoic acid, bis-TFA salt], the inhibitory constant (Ki) in assay [1] is less than 5 nM; in assay [2] (setting [3]), 1.21 nM.
As for `O=C(NC12CCC(C(=O)O)(CC1)CC2)C1c2cccc(-c3cncnc3)c2CCN1C(=O)c1cn(-c2cccc(Cl)c2F)nn1` (stereo not shown) [Example 143, 4-(2-{[1-(3-Chloro-2-fluorophenyl)-1H-1,2,3-triazol-4-yl]carbonyl}-5-(pyrimidin-5-yl)-1,2,3,4-tetrahydroisoquinoline-1-amido)bicyclo[2.2.2]octane-1-carboxylic acid, 1 TFA], the Ki in assay [1] turned out to be 5.23 nM; in assay [2] (measured at 37° C. (*)), 237 nM.
In the case of `CN(C)C(=O)C1CCN(c2cccc3c2CCN(C(=O)c2cn(-c4cccc(Cl)c4F)nn2)[C@@H]3C(=O)Nc2ccc(C(=O)O)cc2)CC1` (single isomer, unassigned) [Example 58, TFA salt], the Ki in assay [1] was less than 5 nM; in assay [2] (setting [3]) it was 3.24 nM.
As to `CN(C)C(=O)C1CCN(c2cccc3c2CCN(C(=O)c2cnn(-c4cccc(Cl)c4F)c2)[C@@H]3C(=O)Nc2ccc(C(=O)O)cc2)CC1` (single isomer, unassigned) [Example 61, TFA salt], the Ki in assay [1] was less than 5 nM; in assay [2] (setting [3]), 5.89 nM.
For `COC1CCN(c2cccc3c2CCN(C(=O)c2cn(-c4cccc(Cl)c4F)nn2)C3C(=O)Nc2ccccc2)CC1` (stereo not shown) [Example 118, 2-(1-(3-Chloro-2-fluorophenyl)-1H-1,2,3-triazole-4-carbonyl)-5-(4-methoxypiperidin-1-yl)-N-phenyl-1,2,3,4-tetrahydroisoquinoline-1-carboxamide, TFA salt], the results for the Ki in assay [1] and in assay [2] (measured at 37° C. (*)) were 38 nM and 250 nM, respectively.
With `Cc1nn(C)c2c1C(C(=O)Nc1ccc(C(=O)O)cc1)N(C(=O)c1cn(-c3cccc(Cl)c3F)nn1)CC2` (stereo not shown) [Example 221, 4-(5-(1-(3-Chloro-2-fluorophenyl)-1H-1,2,3-triazole-4-carbonyl)-1,3-dimethyl-4,5,6,7-tetrahydro-1H-pyrazolo[4,3-c]pyridine-4-carboxamido)benzoic acid], the Ki in assay [1] is 179 nM; in assay [2] (setting [3]), 9.56 nM.
On to `COc1ccc(NC(=O)C2c3cccc(N4CCC(N(C)C)CC4)c3CCN2C(=O)c2cnn(-c3cccc(Cl)c3F)c2)cc1` (stereo not shown) [Example 97, 2-(1-(3-chloro-2-fluorophenyl)-1H-pyrazole-4-carbonyl)-5-(4-(dimethylamino)piperidin-1-yl)-N-(4-methoxyphenyl)-1,2,3,4-tetrahydroisoquinoline-1-carboxamide, TFA salt], for which the Ki in assay [1] was determined as 9.13 nM; in assay [2] (setting [3]), 21.7 nM.
On the same counts, the results for `NS(=O)(=O)c1cccc(-c2cccc3c2CCN(C(=O)c2cn(-c4cccc(Cl)c4F)nn2)C3C(=O)Nc2ccc(C(=O)O)cc2)c1` (stereo not shown) [Example 155, 4-(2-(1-(3-chloro-2-fluorophenyl)-1H-1,2,3-triazole-4-carbonyl)-5-(3-sulfamoylphenyl)-1,2,3,4-tetrahydroisoquinoline-1-carboxamido)benzoic acid] are less than 5 nM and 23.9 nM.
